For orientation: IC50 means the concentration at which inhibition is half-maximal. As a reminder, the Ki is a measure of affinity in units of concentration, obtained from inhibition or displacement. Broadly, the Cmax is the peak of the concentration-time curve.

The values below come from publication PMC12597549 (Drug Metabolism and Disposition, 2025).

Series [1] has as its target T1, UGT2B7^268His (Homo sapiens, UniProt P16662, Y268H).
T1 construct: expressed in transfected cells; microsomal membrane fraction
T1 sequence (P16662 24-529 Y268H): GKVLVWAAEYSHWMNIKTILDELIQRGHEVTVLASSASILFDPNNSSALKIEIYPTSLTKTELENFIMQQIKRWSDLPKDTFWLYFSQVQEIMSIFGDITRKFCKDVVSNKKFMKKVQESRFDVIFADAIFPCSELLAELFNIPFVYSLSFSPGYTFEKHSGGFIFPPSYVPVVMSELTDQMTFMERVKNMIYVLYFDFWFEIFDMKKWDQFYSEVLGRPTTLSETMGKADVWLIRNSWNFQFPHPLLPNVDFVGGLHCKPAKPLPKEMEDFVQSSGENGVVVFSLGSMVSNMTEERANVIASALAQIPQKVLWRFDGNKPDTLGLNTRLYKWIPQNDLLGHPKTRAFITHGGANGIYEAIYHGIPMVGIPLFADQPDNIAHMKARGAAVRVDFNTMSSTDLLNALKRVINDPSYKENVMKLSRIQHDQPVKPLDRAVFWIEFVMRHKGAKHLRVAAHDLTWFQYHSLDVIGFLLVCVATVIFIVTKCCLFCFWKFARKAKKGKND
The experiment in a line: Inhibition of hydromorphone glucuronidation (HM3G formation) by cannabinoids in rUGT2B7^268His microsomes. It counts as biochemical. The note with it: for inhibition of HM3G formation: 100 μM cannabinoid, 400 μM hydromorphone, 2% BSA, vs vehicle control; for IC50: IC50 corrected for nonspecific binding (fu,inc from refs 32,33; 11-OH-THC fu,inc as surrogate for 7-OH-CBD and 7-COOH-CBD), mean ± SD.

In series [2] the target is T2, UGT2B7 in pooled human liver microsomes (HLM) (Homo sapiens, UniProt P16662).
T2 sequence (P16662 24-529): T1 sequence (P16662 24-529 Y268H) with H245Y
In words: Inhibition of UGT2B7-mediated hydromorphone glucuronidation by cannabinoids in pooled HLM (screening, IC50, Ki, inhibition type). The note with it: for inhibition of HM3G formation / inhibition of HM3G formation (in words): 100 μM cannabinoid, pooled HLM; for inhibition of HM3G formation: 400 μM hydromorphone, 2% BSA, vs vehicle control; for IC50: IC50 corrected for nonspecific binding (fu,inc from refs 32,33; 11-OH-THC fu,inc as surrogate for 7-OH-CBD and 7-COOH-CBD), mean ± SD; for Ki: Ki corrected for nonspecific binding (fu,inc from refs 32,33; 11-OH-THC fu,inc as surrogate for 7-OH-CBD), competitive model, mixed model for 11-OH-THC, read-out: Ki,u; for Inhibition Type: type of reversible inhibition of UGT2B7-mediated hydromorphone metabolism in HLM, Lineweaver-Burk replots. It counts as biochemical.

Series [3] deals with UGT2B7-mediated hydromorphone metabolism. In words: Static mechanistic IVIVE modeling of cannabinoid-hydromorphone drug interaction (AUCR). Also on record: species or system human. The following applies: after inhalation and oral consumption of THC and CBD.
The nature of series [4]: Estimated maximum unbound hepatic inlet plasma concentrations of cannabinoids after oral or inhaled THC or CBD. Also on record: species or system human. The note with it: doses and Cmax from Bansal et al., 2022, read-out: Cmax,hepatic inlet,u. The text has this: [I]h is the inhibitor concentration in the liver and is defined as follows:(7) [I]h=fu,p×(Cmax+Fa×Fg×Ka×Dose/Qh×Rb) where fu,p is the unbound fraction of inhibitor in plasma, and Cmax is the maximal total (free and bound) inhibitor concentration in the plasma.

Series [5] addresses T3, UGT2B7^268Tyr (Homo sapiens, UniProt P16662).
T3 sequence (P16662 24-529): T1 sequence (P16662 24-529 Y268H) with H245Y
The note with it: rUGT2B7^268Tyr microsomes; for inhibition of HM3G formation: 100 μM cannabinoid, 400 μM hydromorphone, 2% BSA, vs vehicle control; for IC50: read-out: IC50,u, IC50 corrected for nonspecific binding (fu,inc from refs 32,33; 11-OH-THC fu,inc as surrogate for 7-OH-CBD), mean ± SD.

Series [6] deals with UGT2B7^268Tyr. The following applies: from IC50,u values in rUGT2B7^268Tyr vs rUGT2B7^268His microsomes.
For series [7] the following is noted: set value for static model, cited from earlier work.

Substitutions are numbered along the chain they refer to. “Also recorded” adds a separate entry of the source. Where two headings read alike, the source gives them in different places. Where only a bound is given, the exact number is not on record here.

Consider `C=C(C)[C@@H]1CCC(CO)=C[C@H]1c1c(O)cc(CCCCC)cc1O` [7-OH-CBD, 7-hydroxycannabidiol], for which the results for the “inhibition of HM3G formation” value in series [1], in series [2] and in series [5] were 82%, 87% and 77%, respectively. Besides, the concentration for half-maximal inhibition (IC50) in series [1] was found to be 1.39 ± 0.77 µM; in series [2] (HLM), 0.95 ± 0.25 µM; in series [5], 1.26 ± 0.93 µM. The Ki in series [2] (HLM) worked out at 0.74 ± 0.12 µM. Besides, the “Inhibition Type” value in series [2] is recorded as “Competitive”. Further, the “increase in hydromorphone exposure (static modeling)” value (“increase in hydromorphone exposure” for short) in series [3] was more than 1.25 fold. Besides, the peak concentration (Cmax) in series [4] (CBD 70 mg oral) is 30 nM; in series [4] (CBD 700 mg oral), 340 nM; in series [4] (CBD 2000 mg oral), 980 nM.
In the case of 11-hydroxy (OH)-Δ^9-THC [11-OH-THC], the “inhibition of HM3G formation” value was 98% in series [1], 96% in series [2] and 87% in series [5]. Moreover, the values for the half-inhibitory concentration (IC50) in series [1], in series [2] (HLM) and in series [5] were 0.36 ± 0.03 µM, 1.08 ± 0.14 µM and 0.84 ± 0.19 µM, respectively. Moreover, the “α value (mixed inhibition model)” value in series [2] (HLM, GraphPad mixed inhibition model) is more than 1. Besides, the inhibitory constant (Ki) in series [2] (HLM) stood at 1.01 ± 0.18 µM. Further, the “Inhibition Type” value in series [2] is reported as “mixed type inhibition”. For the same compound, the “increase in hydromorphone exposure” value in series [3] is recorded as more than 1.25 fold. Besides, the maximum concentration (Cmax) in series [4] (THC 20 mg oral) is 20 nM; in series [4] (THC 25 mg inhalation), 10 nM; in series [4] (THC 70 mg inhalation), 30 nM; in series [4] (THC 100 mg inhalation), 50 nM; in series [4] (THC 130 mg oral), 100 nM; in series [4] (THC 160 mg oral), 120 nM. The “inhibitory effect against UGT2B7∗2, fold lower than with UGT2B7∗1” value in series [6] is given as 2- to 3 fold.
In the case of `CCCCCc1cc(O)c2c(c1)OC(C)(C)[C@@H]1CCC(C(=O)O)=C[C@@H]21` [11-COOH-THC, 11-nor-9-carboxy (COOH)-Δ^9-THC], the “inhibition of HM3G formation” value in series [1] was found to be 49%; in series [5], 27%. In series [2], the “inhibition of HM3G formation (in words)” value was “only minimal or moderate inhibition; also recorded: did not show appreciable inhibition”. For the same compound, the peak concentration (Cmax) was 190 nM in series [4] (THC 20 mg oral); 70 nM in series [4] (THC 25 mg inhalation); 180 nM in series [4] (THC 70 mg inhalation); 260 nM in series [4] (THC 100 mg inhalation); 1220 nM in series [4] (THC 130 mg oral); 1500 nM in series [4] (THC 160 mg oral).
In the case of `CCCCCc1cc(O)c2c(c1)OC(C)(C)[C@@H]1CCC(C)=C[C@@H]21` [THC, Δ^9-tetrahydrocannabinol, reference compound], the entries for the “inhibition of HM3G formation” value in series [1] and in series [5] were 67% and 45%, respectively. For the same compound, the IC50 in series [1] was 2.92 ± 0.26 µM; in series [2] (HLM), 2.5 ± 0.58 µM. In addition, the “inhibition of HM3G formation (in words)” value in series [2] is listed as “only minimal or moderate inhibition”. Also, the Ki in series [2] (HLM) came out at 0.17 ± 0.02 µM. Further, the “Inhibition Type” value in series [2] is given as “Competitive”. Moreover, in series [3], the “increase in hydromorphone exposure” value is listed as more than 1.25 fold. The Cmax in series [4] (THC 20 mg oral) was 30 nM; in series [4] (THC 25 mg inhalation), 250 nM; in series [4] (THC 70 mg inhalation), 690 nM; in series [4] (THC 100 mg inhalation) it was 990 nM; in series [4] (THC 130 mg oral) it was 200 nM; in series [4] (THC 160 mg oral) it was 240 nM. Also, the “inhibitory effect on hydromorphone metabolism for the UGT2B7∗2 variant (in words)” value in series [5] is on record as “little to no inhibitory effect”. In addition, the “ka (first-order absorption rate constant)” value in series [7] (ref Cox et al., 2019) is recorded as 0.02. The “BP (blood to plasma ratio)” value in series [7] (ref Schwilke et al., 2009) is 0.4.
With `C=C(C)[C@@H]1CCC(C(=O)O)=C[C@H]1c1c(O)cc(CCCCC)cc1O` [7-COOH-CBD], in series [1], the “inhibition of HM3G formation” value is 60% and the half-maximal inhibitory concentration (IC50) came to 5.54 ± 3.67 µM. In addition, in series [2], the “inhibition of HM3G formation (in words)” value is “only minimal or moderate inhibition”. In series [2] (HLM), this compound showed a concentration for half-maximal inhibition (IC50) of more than 10 µM. For the same compound, in series [5], the “inhibition of HM3G formation” value is 41% and the “inhibitory effect on hydromorphone metabolism for the UGT2B7∗2 variant (in words)” value was “little to no inhibitory effect”.
